US4072755A, “Novel cyclopentanoic acid derivatives” (Roussel UCLAF, priority 1975, dated 1978)

Key:
guinea pig ileon = assay: Relaxant activity on the guinea pig ileon (isolated organ bath); conditions: isolated terminal guinea pig ileon, oxygenated Tyrode liquid, 37° C; for minimal effective concentration: Cavia porcellus, read-out: Relaxant Activity (concentration which caused a suppression of spontaneous contractions and relaxed the organ)
Protocol: The relaxant effect of the test compounds was determined on guinea pig ileon using the following procedure. The terminal portion of the guinea pig ileon was removed and washed with Tyrode solution at 37° C. It was then suspended in a bath of oxygenated Tyrode liquid at 37° C and the contractions were registered on a collector attached to a Sanborn polygraph. The test product was added to bath of the organ with a low volume and the concentration which caused a suppression of spontaneous contractions and relaxed the organ causing a lowering of the line of the base was considered to be relaxant.

mice = assay: Analgesic activity - stretching provoked by acetic acid (Koster et al); format: in vivo; conditions: Mus musculus, 0.25 h, oral, one half hour before intraperitoneal 1% acetic acid 100 mg/kg, 15 minute observation, fasted, read-out: DA50 (dose which reduced the number of stretchings by 50%)
Protocol: The test procedure was that of Koster et al wherein an intraperitoneal injection of aqueous acetic acid in a concentration of 1% at a dose of 100 mg/kg caused in mice repeated movements of stretching and twisting which can persist for more than 6 hours. Analgesics prevent or lessen the syndrome. The test products were orally administered one half hour before the acetic acid injection and the mice were fasted from the day before the test. The stretching were counted for each mouse during a 15 minute observation period beginning right after the acetic acid injection and the analgesic effect was expressed as a percentage of protection with respect to the controls.

[1] = tested on: prostaglandin synthetases of lungs of guinea pigs; assay: Inhibitory effect against biosynthesis of prostaglandins starting with arachidonic acid by prostaglandin synthetases of lungs of guinea pigs (Vane); format: biochemical; conditions: guinea pig lung homogenate supernatant, 10 μg arachidonic acid, 30 minutes at 37° C; prostaglandin-like activity read on isolated rat colon; read-out: CI50 (inhibited by 50% the biosynthesis activity)
From the text: C. INHIBITORY EFFECT AGAINST BIOSYNTHESIS OF PROSTAGLANDINS SYNTHESIS OF PROSTAGLANDINS STARTING WITH ARACHIDONIC ACID BY MEANS OF PROSTAGLANDIN SYNTHETASES OF LUNGS OF GUINEA PIGS.
This test used the procedure of Vane [Nature New Biology, Vol. 231 (1971), p. 232-235] wherein the lungs of adult guinea pigs (2 per series) were rapidly removed and washed with a modified, iced Bucher medium. The lung tissue was homogenized in a Turrax grinder in a minute and the homogenate was centrifuged for 20 minutes to 1200 g. The supernatant was used as a preparation of prostaglandin synthetases.
A solution of arachidonic acid in ethanol at a concentration of 10 mg/ml was diluted with a 0.2% aqueous sodium carbonate solution and was then diluted further with a modified Bucher medium to obtain a final acid concentration of 200 μg/ml. The biosynthesis inhibitors are put into aqueous or dilute alcohol (20% maximum) solutions. Tubes were prepared containing 1 ml of the prostaglandin synthetases preparation, 10 μg of arachidonic acid and 0.1 ml of inhibiting solution or, for the controls, an equal volume of water or dilute alcohol. The tubes were incubated with stirring for 30 minutes at 37° C in aerobic conditions and each test consisted of a tube containing a biosynthesis inhibitor, one biosynthesis control with incubated arachidonic acid and one control with non-incubated arachidonic acid. The latter control permitted a evaluation of amount of natural prostaglandins present in the ground lung and the results obtained with this control must therefore be taken away from the control of biosynthesis and from all the tests. The reactions were stopped by immension in boiling water until the proteins are coagulated. The dosage of "prostaglandin like" activity was effected biologically on the isolated rat colon suspended in Krebs liquid, mixed to augment the specificity, with antagonists to other contracturant mediators susceptible to interfere. The antagonists were mepyramine, scopolamine, methysergide, phenoxybenzamine and propanolol.
A comparison of the results registered in the presence or absence of a test product permitted the calculation of the percentage of biosynthesis inhibition. The CI50 dose which inhibited by 50% the biosynthesis activity was graphically obtained by straight line representing the percent of inhibition with reference to the incubated controls against the log of the concentration in μg/ml and the results are reported in Table II.

Structure (SMILES)	Relaxant Activity (concentration which caused a suppression of spontaneous contractions and relaxed the organ) (guinea pig ileon) [µg/mL]	ED50 (mice) [mg/kg]	minimal effective concentration (guinea pig ileon) [µg/mL]	IC50 [1] [µM]
CCCCC[C@H](O)/C=C/[C@H]1CC[C@H](O)[C@H]1CO (racemic) [Product A, (1RS, 2SR, 5RS, 3'SR) (1'E) 2,3'-dihydroxy-5-(1'-octenyl)-cyclopentane methonol]	20	–	–	–
CCCCC[C@@H](/C=C/[C@H]1CC[C@H](O)[C@@H]1C(=O)OCC)OC(=O)c1ccccc1C(=O)O (relative stereo) [Product B, ethyl (1RS, 2SR, 5RS, 3'SR) (1'E) 2-hydroxy-5-(3'-α-hemiphthaloyloxy-1'-octenyl)-cyclopentanecarboxylate]	–	~100	–	–
CCCCCCCCCC(=O)O[C@H](/C=C/[C@H]1CC[C@H](O)[C@@H]1C(=O)OCC)CCCCC (relative stereo) [Product C, ethyl (1RS, 2SR, 5RS, 3'SR) (1'E) 2-hydroxy-5-(3'-decanoyloxy-1'-octenyl)-cyclopentanecarboxylate]	–	–	20	137
CCCCC[C@@H](/C=C/[C@H]1CC[C@H](O)[C@@H]1C(=O)OCC)OC (relative stereo) [Product D, ethyl (1RS, 2SR, 5RS, 3'SR) (1'E) 2-hydroxy-5-(3'methoxy-1'-octenyl)-cyclopentanecarboxylate]	–	–	5	436
CCCCC[C@@H](/C=C/[C@H]1CC[C@@H](O)[C@@H]1C(=O)OCC)OC (relative stereo) [Product E, ethyl (1RS, 2RS, 5RS, 3'SR) (1'E) 2-hydroxy-5(3'-methoxy-1'-octenyl)-cyclopentanecarboxylate]	–	–	10	671
CCCCC[C@@H](/C=C/[C@H]1CC[C@H](O)[C@@H]1C(=O)OCC)OC(=O)CCC(=O)O (relative stereo) [Product F, ethyl (1RS, 2SR, 5RS, 3'SR) (1'E) 2-hydroxy-5-(3'-hemisuccinyloxy-1'-octenyl)-cyclopentanecarboxylate]	–	–	–	123
CCCCCCCCCC(=O)O[C@H](/C=C/[C@H]1CC[C@@H](O)[C@@H]1C(=O)OCC)CCCCC (relative stereo) [Product G, ethyl (1RS, 2RS, 5RS, 3'SR) (1'E) 2-hydroxy-5-(3'-decanoyloxy-1'-octenyl)-cyclopentanecarboxylate]	–	–	–	113
